# Paper PMC11401910, “Dual client binding sites in the ATP-independent chaperone SurA” (Nature Communications, 2024)
# Entries after “also recorded” stand apart in the source; their conditions may differ. Like-named read-outs stand apart in the source and are kept apart here.
# Legend:
# SurA-WT [1] = target: T1, SurA-WT (Escherichia coli, UniProt P0ABZ6); type: binding; parameters: made in house; host or cells: E. coli BL21(DE3)
# Method: All NMR experiments were performed on a 950-MHz Bruker Ascend Avance III HD NMR spectrometer equipped with either a Bruker 3 mm TCI or 5 mm TXO triple-resonance cryogenically cooled probe. Peptide binding experiments were performed in 5 mM EDTA, 20 mM Tris-HCl, pH 8.0 with 5 % (v/v) D2O at 25 °C. Binding experiments using full-length OMP sequences also contained 0.8 M urea. Data was acquired for ~16 h with the exception of OMP-containing experiments which were acquired for ~5 h. […] (2D ^1H-^13C SOFAST-HMQC)[70]. […] Errors in the intensity ratios for each peak between two spectra were obtained by propagating the errors according to:1 δR=R*δX/X+δY/Y where δR is the error in the intensity ratio, |R| is the value of the intensity ratio, X and Y are the intensity values for the peak in the first and second spectrum, respectively, and δX and δY are the noise floor values for the first and second spectrum, respectively.
# Z-scores for intensity ratio and CSP data were calculated using:3 Zi=xi−μ/σ where xi is the value for a particular peak, and µ and σ are the mean and standard deviation for all peaks, respectively.
# For assignment of SurA-WT Ile and Met residues (43 in total) each residue was individually mutated (Supplementary Table 3), and the effect of the mutation assessed by methyl-TROSY NMR. Samples contained 5–70 µM SurA variant. Assignment experiments (2D ^1H-^13C SOFAST-HMQCs) for Ile or Met variants were performed in 20 mM sodium phosphate, 50 mM NaCl, pH 7.5 (at 35 °C), or 20 mM Tris-HCl, pH 8 (at 25 °C), respectively. […] The ^1H chemical shift assignments were referenced using 2,2-dimethyl-2-silapentane-5-sulphonic acid (DSS) at 25 °C as a standard. The ^13C chemical shifts were referenced indirectly to DSS. NMR assignments have been deposited in the Biological Magnetic Resonance Bank (BMRB) with Entry ID 52180.
# SurA-WT [2] = target: T1, SurA-WT; conditions: pH 8
# Description: (1 picture or pasted object on this page, not shown here)
# Source data are provided as a Source Data file.
# SurA = conditions: read-out: Kd, binding of peptide to SurA; cited from earlier work
# Description: (where Ar is an aromatic residue and X is any amino acid), or aromatic-enriched sequences containing an Ar-X-Ar-X-Pro motif. […] Both of these types of peak changes (shifts and/or broadening), can report on binding or conformational changes caused by binding at the location of the corresponding ^13CH3 probe[73],[74].
# [3] = 5 µM SurA-WT, 200 µM peptide (SVD and WEYIPNV 50 µM), 5 mM EDTA, 20 mM Tris-HCl pH 8, 25 °C
# T1 sequence (P0ABZ6 other isoform, or with tags, fused parts or gaps): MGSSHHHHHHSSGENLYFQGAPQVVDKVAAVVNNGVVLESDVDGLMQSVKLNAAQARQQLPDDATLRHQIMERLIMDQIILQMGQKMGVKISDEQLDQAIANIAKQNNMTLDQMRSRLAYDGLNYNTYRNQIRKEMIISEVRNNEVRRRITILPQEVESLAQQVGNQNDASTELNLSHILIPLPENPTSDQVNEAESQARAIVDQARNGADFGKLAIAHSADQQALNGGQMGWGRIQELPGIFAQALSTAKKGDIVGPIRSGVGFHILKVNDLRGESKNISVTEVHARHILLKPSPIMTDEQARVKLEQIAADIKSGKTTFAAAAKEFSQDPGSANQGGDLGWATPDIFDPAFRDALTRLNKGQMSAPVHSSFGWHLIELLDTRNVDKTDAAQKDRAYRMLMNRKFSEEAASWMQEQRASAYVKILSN
Compound,"Interaction of peptide with SurA-WT binding sites (core, P1) by methyl-TROSY NMR, in words (SurA-WT [1]; [3])","Interaction of peptide with SurA-WT binding sites (core, P1) by methyl-TROSY NMR, in words (SurA-WT [1]; pH 8)",Affinity of peptide for SurA-WT by ITC (in words) (SurA-WT [2]),Kd (SurA)
CSCC[C@H](NC(=O)[C@H](CCCCN)NC(=O)[C@H](CC(N)=O)NC(=O)[C@H](CCSC)NC(=O)[C@H](CCC(N)=O)NC(C)=O)C(=O)NCC(=O)NCC(=O)N[C@@H](Cc1ccccc1)C(=O)N[C@@H](CC(N)=O)C(=O)N[C@@H](CC(C)C)C(=O)N[C@@H](CCCCN)C(=O)N[C@@H](Cc1ccc(O)cc1)C(=O)N[C@@H](CCCNC(=N)N)C(=O)N[C@@H](Cc1ccc(O)cc1)C(=O)N[C@@H](CCC(=O)O)C(N)=O [QMN],also affect the peak for M231 in the P1 domain; also recorded: binding results in conformational changes associated with core-P1 opening,,,
Ac-KHDTSDYGFSYGAGL-NH2 [KHD],also affect the peak for M231 in the P1 domain,,,
"NLKYRYE [QMN^C-term, C-terminal seven residues of QMN]",,"demonstrated binding at the core site, but with binding largely abolished at the P1 site",,
WEYIPNV [reference compound],,severe broadening of the resonance for M231; also recorded: substantial CSPs in the P1 domain,consistent with literature values,1 to 14 µM
